In patent US4420426A, “6-Alpha-halopenicillanic acid 1,1-dioxides” (Pfizer Inc., priority 1980, dated 1983):
Converted amounts (≈) assume the structure as drawn.

Key:
Experiment in all cases: In vitro antibacterial activity (MIC)
Type in all cases: cell-based
Citrobacter freundii = tested on: Citrobacter freundii
Text: (§1) The compound of formula I, wherein R^1 is hydrogen, and salts thereof, are active as antibacterial agents of medium potency both in vitro and in vivo, and the compounds of formula I, wherein R^1 is an ester-forming residue readily hydrolyzable in vivo are active as antibacterial agents of medium potency in vivo.

Enterobacter aerogenes = details: Klebsiella aerogenes
Text: as §1

Enterobacter clocae = tested on: Enterobacter clocae
Text: as §1

Escherichia coli = tested on: Escherichia coli
Text: as §1

Hemophilus influenzae = details: Haemophilus influenzae
Text: as §1

Klebsiella pneumoniae = tested on: Klebsiella pneumoniae
Text: as §1

Neisseria gonorrhoeae = tested on: Neisseria gonorrhoeae
Text: as §1

Pasteurella multocida = tested on: Pasteurella multocida
Text: as §1

Proteus mirabilis = tested on: Proteus mirabilis
Text: as §1

Proteus morgani = tested on: Proteus morgani
Text: as §1

Providencia = tested on: Providencia
Text: as §1

Pseudomonas aeruginosa = tested on: Pseudomonas aeruginosa
Text: as §1

Pseudomonas putida = tested on: Pseudomonas putida
Text: as §1

Salmonella typhimurium = details: Salmonella enterica
Text: as §1

Serratia marcescens = tested on: Serratia marcescens
Text: as §1

Staphylococcus aureus = tested on: Staphylococcus aureus
Text: as §1

Staphylococcus epidermis = tested on: Staphylococcus epidermis
Text: as §1

Streptococcus faecalis = details: Enterococcus faecalis
Text: as §1

Streptococcus pyogenes = tested on: Streptococcus pyogenes
Text: as §1

Compound: CC1(C)[C@H](C(=O)O)N2C(=O)C[C@H]2S1(=O)=O [Penicillanic Acid 1,1-Dioxide]
- MIC (Citrobacter freundii): 50 µg/mL (≈ 214 µM)
- MIC (Enterobacter aerogenes): 25 µg/mL (≈ 107 µM)
- MIC (Enterobacter clocae): 100 µg/mL (≈ 429 µM)
- MIC (Escherichia coli): 50 µg/mL (≈ 214 µM)
- MIC (Hemophilus influenzae): 50 µg/mL (≈ 214 µM)
- MIC (Klebsiella pneumoniae): 50 µg/mL (≈ 214 µM)
- MIC (Neisseria gonorrhoeae): 0.312 µg/mL (≈ 1.34 µM)
- MIC (Pasteurella multocida): 50 µg/mL (≈ 214 µM)
- MIC (Proteus mirabilis): 100 µg/mL (≈ 429 µM)
- MIC (Proteus morgani): 100 µg/mL (≈ 429 µM)
- MIC (Providencia): 100 µg/mL (≈ 429 µM)
- MIC (Pseudomonas aeruginosa): 200 µg/mL (≈ 857 µM)
- MIC (Pseudomonas putida): 200 µg/mL (≈ 857 µM)
- MIC (Salmonella typhimurium): 50 µg/mL (≈ 214 µM)
- MIC (Serratia marcescens): 100 µg/mL (≈ 429 µM)
- MIC (Staphylococcus aureus): 100 µg/mL (≈ 429 µM)
- MIC (Staphylococcus epidermis): 200 µg/mL (≈ 857 µM)
- MIC (Streptococcus faecalis): 200 µg/mL (≈ 857 µM)
- MIC (Streptococcus pyogenes): 100 µg/mL (≈ 429 µM)
